Activity calls are given as the source filed them. The rule behind the calls is not given here.
What was measured:
MHCC97H [1] = assay: Cytotoxicity against human MHCC97H cells assessed as cell viability up to 40 uM measured at 12 hrs by MTT assay; format: functional, cell-based
HCCLM3 [2] = assay: Cytotoxicity against human HCCLM3 cells assessed as reduction in cell viability at 40 uM measured at 48 hrs by MTT assay; format: functional, cell-based
HCCLM3 [3] = assay: Cytotoxicity against human HCCLM3 cells assessed as cell viability up to 40 uM measured at 24 to 48 hrs by MTT assay; format: functional, cell-based; details: time 24-48 hrs
MHCC97H [4] = assay: Cytotoxicity against human MHCC97H cells assessed as cell viability up to 40 uM by MTT assay; format: functional, cell-based; details: time 12-48 hrs
HCCLM3 [5] = assay: Cytotoxicity against human HCCLM3 cells assessed as cell viability up to 40 uM measured at 12 hrs by MTT assay; format: functional, cell-based
HCCLM3 [6] = assay: Cytotoxicity against human HCCLM3 cells assessed as reduction in cell viability at 40 uM by MTT assay; format: functional, cell-based; details: time 48.0 hrs
HCCLM3 [7] = assay: Cytotoxicity against human HCCLM3 cells assessed as cell viability up to 40 uM by MTT assay; format: functional, cell-based; details: time 12-48 hrs
HCCLM3 [8] = assay: Cytotoxicity against human HCCLM3 cells assessed as cell viability incubated at 12 to 48 hrs hrs by MTT assay; format: functional, cell-based; details: dose <= 40.0 µM, time 12-48 hrs
MHCC97H [9] = assay: Cytotoxicity against human MHCC97H cells assessed as reduction in cell viability at 40 uM by MTT assay; format: functional, cell-based; details: time 48.0 hrs
MHCC97H [10] = assay: Cytotoxicity against human MHCC97H cells assessed as cell viability up to 40 uM measured at 24 to 48 hrs by MTT assay; format: functional, cell-based; details: time 24-48 hrs
MHCC97H [11] = assay: Cytotoxicity against human MHCC97H cells assessed as cell viability incubated at 12 to 48 hrs hrs by MTT assay; format: functional, cell-based; details: dose <= 40.0 µM, time 12-48 hrs
MHCC97H [12] = assay: Cytotoxicity against human MHCC97H cells assessed as reduction in cell viability up to 40 uM measured at 48 hrs by MTT assay; format: functional, cell-based
HCCLM3 [13] = assay: Cytotoxicity against human HCCLM3 cells assessed as reduction in cell viability up to 40 uM measured at 48 hrs by MTT assay; format: functional, cell-based
MHCC97H [14] = assay: Antitumor activity against human MHCC97H cells xenografted in nude mouse assessed as increase in apoptotic cells at 15 mg/kg, po administered daily for 3 weeks by TUNEL staining based assay; format: functional, organism-based
MHCC97H [15] = assay: Cytotoxicity against human MHCC97H cells assessed as reduction in cell viability at 40 uM measured at 48 hrs by MTT assay; format: functional, cell-based
[16] = Toxicity in nude mouse implanted with human MHCC97H cells assessed as body weight at 10 mg/kg, po administered daily for 3 weeks and measured immediately (reference value: 25.05 g); format: organism-based; details: in vivo, 504 h
[17] = Toxicity in nude mouse implanted with human MHCC97H cells assessed as spleen damage at 5 to 10 mg/kg, po administered daily for 3 weeks by H and E staining based analysis; format: organism-based; details: in vivo, 504 h, dose 5-10 mg/kg
HCCLM3 [18] = assay: Cytotoxicity against human HCCLM3 cells assessed as inhibition of cell proliferation incubated for 48 hrs by MTT assay; format: functional, cell-based; details: HCCLM3, 48 h
[19] = Toxicity in nude mouse implanted with human MHCC97H cells assessed as heart damage at 5 to 10 mg/kg, po administered daily for 3 weeks by H and E staining based analysis; format: organism-based; details: in vivo, 504 h, dose 5-10 mg/kg
MHCC97H [20] = assay: Cytotoxicity against human MHCC97H cells assessed as inhibition of cell proliferation incubated for 48 hrs by MTT assay; format: functional, cell-based
HepG2 = assay: Cytotoxicity against human HepG2 cells assessed as inhibition of cell proliferation incubated for 48 hrs by MTT assay; format: functional, cell-based; details: HepG2, 48 h
[21] = Toxicity in nude mouse implanted with human MHCC97H cells assessed as kidney damage at 5 to 10 mg/kg, po administered daily for 3 weeks by H and E staining based analysis; format: organism-based; details: in vivo, 504 h, dose 5-10 mg/kg
[22] = Toxicity in nude mouse implanted with human MHCC97H cells assessed as body weight at 5 mg/kg, po administered daily for 3 weeks and measured immediately (reference value: 25.05 g); format: organism-based; details: in vivo, 504 h
[23] = Toxicity in nude mouse implanted with human MHCC97H cells assessed as body weight at 5 mg/kg, po administered daily for 3 weeks and measured at day 22 (reference value: 26.38 g); format: organism-based; details: in vivo, 1032 h, time 43 day
[24] = Toxicity in nude mouse implanted with human MHCC97H cells assessed as lung damage at 5 to 10 mg/kg, po administered daily for 3 weeks by H and E staining based analysis; format: organism-based; details: in vivo, 504 h, dose 5-10 mg/kg
[25] = Toxicity in nude mouse implanted with human MHCC97H cells assessed as body weight at 10 mg/kg, po administered daily for 3 weeks and measured at day 22 (reference value: 26.38 g); format: organism-based; details: in vivo, 1032 h, time 43 day
[26] = Toxicity in nude mouse implanted with human MHCC97H cells assessed as liver damage at 5 to 10 mg/kg, po administered daily for 3 weeks by H and E staining based analysis; format: organism-based; details: in vivo, 504 h, dose 5-10 mg/kg
Huh-7 = assay: Cytotoxicity against human Huh-7 cells assessed as inhibition of cell proliferation incubated for 48 hrs by MTT assay; format: functional, cell-based; details: Huh-7, 48 h
[27] = Toxicity in nude mouse implanted with human MHCC97H cells assessed as body weight at 15 mg/kg, po administered daily for 3 weeks and measured immediately (reference value: 25.05 g); format: organism-based; details: in vivo, 504 h
[28] = Toxicity in nude mouse implanted with human MHCC97H cells assessed as spleen damage at 5 to 15 mg/kg, po administered daily for 3 weeks by H and E staining based analysis; format: organism-based; details: in vivo, 504 h, dose 5-15 mg/kg
[29] = Toxicity in nude mouse implanted with human MHCC97H cells assessed as kidney damage at 5 to 15 mg/kg, po administered daily for 3 weeks by H and E staining based analysis; format: organism-based; details: in vivo, 504 h, dose 5-15 mg/kg
[30] = Toxicity in nude mouse implanted with human MHCC97H cells assessed as body weight at 15 mg/kg, po administered daily for 3 weeks and measured at day 22 (reference value: 26.38 g); format: organism-based; details: in vivo, 1032 h, time 43 day
[31] = Toxicity in nude mouse implanted with human MHCC97H cells assessed as heart damage at 5 to 15 mg/kg, po administered daily for 3 weeks by H and E staining based analysis; format: organism-based; details: in vivo, 504 h, dose 5-15 mg/kg
[32] = Toxicity in nude mouse implanted with human MHCC97H cells assessed as lung damage at 5 to 15 mg/kg, po administered daily for 3 weeks by H and E staining based analysis; format: organism-based; details: in vivo, 504 h, dose 5-15 mg/kg
[33] = Toxicity in nude mouse implanted with human MHCC97H cells assessed as liver damage at 5 to 15 mg/kg, po administered daily for 3 weeks by H and E staining based analysis; format: organism-based; details: in vivo, 504 h, dose 5-15 mg/kg

SMILES: CC[C@@H](C)[C@H]1NC(=O)[C@@H]2CCCN2C(=O)[C@@H](CC(C)C)NC(=O)[C@H](CO)NC(=O)[C@@H](CC(C)C)NC(=O)[C@H](C(C)C)NC(=O)[C@H](CC(C)C)NC(=O)[C@H](CC(C)C)NC(=O)[C@H](CC(C)C)NC1=O
- Activity (MHCC97H [1]): Active
- Activity (HCCLM3 [2]): Active
- Activity (HCCLM3 [3]): Active
- Activity (MHCC97H [4]): Time-dependent-effect
- Activity (HCCLM3 [5]): Active
- Activity (HCCLM3 [6]): Time-dependent-effect
- Activity (HCCLM3 [7]): Time-dependent-effect
- Activity (HCCLM3 [8]): Dose-dependent-effect
- Activity (MHCC97H [9]): Time-dependent-effect
- Activity (MHCC97H [10]): Active
- Activity (MHCC97H [11]): Dose-dependent-effect
- Activity (MHCC97H [12]): Active
- Activity (HCCLM3 [13]): Active
- Activity (MHCC97H [14]): Active
- Activity (MHCC97H [15]): Active

SMILES: CC[C@H](C)[C@@H]1NC(=O)[C@@H]2CCCN2C(=O)[C@H](CC(C)C)NC(=O)[C@H](COC(C)(C)C)NC(=O)[C@H](CC(C)C)NC(=O)[C@H](C(C)C)NC(=O)[C@H](CC(C)C)NC(=O)[C@H](CC(C)C)NC(=O)[C@H](CC(C)C)NC1=O
- Activity [16]: 25.6 g
- Activity [17]: Non-toxic
- IC50 (HCCLM3 [18]): 4.6 µM
- Activity [19]: Non-toxic
- IC50 (MHCC97H [20]): 4.1 µM
- IC50 (HepG2): 3.29 µM
- Activity [21]: Non-toxic
- Activity [22]: 25.98 g
- Activity [23]: 26.7 g
- Activity [24]: Non-toxic
- Activity [25]: 26.43 g
- Activity [26]: Non-toxic
- IC50 (Huh-7): 3.29 µM

SMILES: CC[C@H](C)[C@@H]1NC(=O)[C@@H]2CCCN2C(=O)[C@H](CC(C)C)NC(=O)[C@H](CO)NC(=O)[C@H](CC(C)C)NC(=O)[C@H](C(C)C)NC(=O)[C@H](CC(C)C)NC(=O)[C@H](CC(C)C)NC(=O)[C@H](CC(C)C)NC1=O
- Activity [27]: 24.9 g
- Activity [16]: 25 g
- Activity [28]: Non-toxic
- IC50 (HCCLM3 [18]): 35.7 µM
- IC50 (MHCC97H [20]): 33.3 µM
- IC50 (HepG2): > 100 µM
- Activity [29]: Non-toxic
- Activity [30]: 26.3 g
- Activity [22]: 25.43 g
- Activity [31]: Non-toxic
- Activity [23]: 26.38 g
- Activity [32]: Non-toxic
- Activity [25]: 26.3 g
- Activity [33]: Non-toxic
- IC50 (Huh-7): > 100 µM
